# Experimental data reported in US11985977B2, “Use of composition as a growth promotant for plants” (UENME Global Pty LTD, priority 2018, dated 2024).
# Columns and labels:
# [1] = Growth stimulation by TMT mixed with liquid humate solution and powdered zeolite; assay type: in vivo; details: TMT mixed with a liquid humate solution containing fine powdered zeolite (<40 u)
# Phellinus = assay: Similar laboratory study on Phellinus from avocado and Eucalyptus; assay type: cell-based; details: similar TMT aqueous solutions; pathogens found on avocado and Eucalyptus
# Fusarium oxysporum = assay: Banana plantation foliar spray trial (Example 7); assay type: in vivo; details: 0.03% w/v foliar spray, seven affected banana plants (cv Lady Finger); no change in water-sprayed control
# Experimental: On a banana (Musa) plantation in Queensland, banana plants (cv Lady Finger) were identified to be affected with Fusarium oxysporum (an ascomycete fungus). Vascular colourisation was seen where the fungus had colonised. A trial using foliar sprays was used. TMT supplied in a 15% aqueous solution diluted in rainwater at 1 in 500 (10 ml/5 L), namely in 0.03% w/v aqueous solution was used for the foliar spraying of seven affected banana plants.
# [2] = tested on: mango (Mangifera indica) trees (cv Kensington Pride); assay: Mango early flowering and fruiting, foliar spray (Example 8); assay type: in vivo; details: 0.03% w/v
# Experimental: These mango trees are in rocky poor soil, that is not irrigated.
# On 28 Jun. 2019, TMT supplied in a 15% aqueous solution diluted in rainwater at 1 in 500 (10 ml/5 L), namely in 0.03% w/v aqueous solution was applied by foliar spraying.
# [3] = tested on: avocado (Persea americana); assay: Avocado orchard soil spray trial (Example 1); assay type: in vivo
# Experimental: In an avocado (Persea americana) orchard in Queensland, an area of the orchard was selected with poor tree health.
# TMT supplied in a 15% aqueous solution was diluted in collected rainwater at 1 in 400, namely in a 0.0375% w/v aqueous solution, was applied with a fire-fighting pump and sprayed to the soil only beneath two trees. This spraying mimicked a tree sprinkler application and was applied as twenty litres per tree.
# mango (Mangifera indica) = assay: Mango orchard foliar and stem spray, growth and fruit (Example 5); assay type: in vivo
# Experimental: TMT supplied in a 15% aqueous solution diluted in rainwater at 1 in 500 (10 ml/5 L), namely in 0.03% w/v aqueous solution was used. These three trees were foliar and stem sprayed (2 litre/tree each time) with the solution, once, twice or three times some two weeks apart.
# [4] = tested on: native bloodwood (Eucalyptus) trees; assay: Bloodwood trees, bark and soil drench (Example 3); assay type: in vivo; details: 0.03% w/v, three applications drenching bark and surrounding soil; trees appeared to be dying
# Experimental: On 10 Apr. 2017 TMT supplied in a 15% aqueous solution diluted in rainwater at 1 in 500 (10 ml/5 L), namely in 0.03% w/v aqueous solution was first applied by drenching the bark and surrounding soil for each of the three.
# Second and third similar applications of a 0.03% w/v TMT aqueous solution were made to the three trees on 3 June and 27 June respectively.
# [5] = tested on: Phellinus (fungal pathogen); assay: Second mango trial, fungal pathogen (Example 6); assay type: in vivo; details: spraying as in Example 5; Phellinus fruiting bodies under the bark at start
# Rhodes grass = Rhodes grass pasture dieback trial (Example 2); assay type: in vivo; details: 0.03% w/v applied 27 Jun. 2017; sample taken 8 Aug., kept in 10 ml rainwater, observed by 28 Aug. 2017; no change on untreated control
# Experimental: On a property near Gin Gin, Queensland a pasture area of Rhodes grass was suffering from “pasture dieback”.
# On 27 Jun. 2017 TMT supplied in a 15% aqueous solution diluted in rainwater at 1 in 500 (10 ml/5 L), namely in a 0.03% w/v aqueous solution was applied to a portion of that pasture area hereinafter referred to as the “treated grass”.
# On 8 Aug. 2017 grass samples were taken from the treated grass (as a test sample) and from the surrounding untreated grass (as a control sample), and each of these grass samples were placed in separate open containers containing 10 ml of rainwater.
# [6] = tested on: Native pine trees (Auracaria spp.); assay: Native pine trees spray; assay type: in vivo; details: sprayed 28 Jun. 2019
# Text: Native pine trees (Auracaria spp.) of differing varieties, also on the same property as in Example 8, were also sprayed on the 28 Jun.
# [7] = tested on: blue gum, spotted gum, blood wood, lemon scented gum, Moreton Bay ash and Corymbia costata; assay: Additional Eucalypt trials, bark spray; assay type: in vivo, Eucalypts; details: bark sprayed; drought conditions, Phytophthora in the soil
# Experimental: Additional trials were also carried out on Eucalypts other than that described in Example 3.
# Under current drought conditions and the presence of Phytophthora in the soil, all of the additional trees we trialled looked close to death. The bark of all the following trees were sprayed viz. blue gum, spotted gum, blood wood, lemon scented gum, Moreton Bay ash and Corymbia costata.
# Macadamia tree = Macadamia tree foliar spray, early flowering; assay type: in vivo
# Text: On the same property as in Example 8, a Macadamia tree was also foliar sprayed on 28 Jun.
# [8] = tested on: mango trees (cv Kensington Pride); assay: Second mango trial, fruit and tree health (Example 6); assay type: in vivo, Mangifera indica
# Pithium spp. = assay: Contact kill of soil borne fungal pathogens; assay type: cell-based; details: TMT diluted with water
# Text: (§1) TMT diluted with water kills the soil borne fungal pathogens, Phytothphora cinnamomi, Pithium spp., and Phellinus spp. on contact.
# Phellinus spp. = assay: Contact kill of soil borne fungal pathogens; assay type: cell-based; details: TMT diluted with water
# Text: as §1
# Phytothphora cinnamomi = assay: Contact kill of soil borne fungal pathogens; assay type: cell-based; details: TMT diluted with water
# Text: as §1
# Phytophthora = assay: Laboratory study on Phytophthora in avocado soil (Example 4); assay type: cell-based
# Experimental: Laboratory study on Phytophthora (30 Sep. 2017 onwards to August 2018)
# Crop avocado soil with Phytophthora.
# Treatment TMT supplied in a 15% aqueous solution diluted at 1:500 (10 ml/5 L)
# [9] = tested on: other soil microbes including other pathogens, fungi, bacteria as well as other soil or water borne biota; assay: Toxicity to other soil microbes and biota; details: TMT diluted with water
# Pithium = assay: Similar laboratory study on Pithium from avocado and Eucalyptus; assay type: cell-based; details: similar TMT aqueous solutions; pathogens found on avocado and Eucalyptus
# [10] = tested on: blue grass, couch, Rhodes and turf grasses; assay: Grass trials (die back); assay type: in vivo
# Experimental: Trials were performed on grazing land, a football field, a house front lawn with controls and on golf course couch greens. In all trials on soil with spray application (50 L/50 m^2) relative to controls with water only or TMT+humate solution applied in zeolite or in biochar+/− TMT and humate, 1 kg/10 m^2 with 40 L of solution/T of absorbent.
# rat = details: ingestion; cited from earlier work
# [11] = tested on: hemp, macadamias, grapes, citrus (mandarins) and capsicum; assay: Various other crop trials, spraying; assay type: in vivo; details: 0.03% w/v spray
# [12] = tested on: fungal pathogens Phellinus and Phytophthora; assay: Mango orchard foliar and stem spray, fungal pathogens (Example 5); assay type: in vivo; details: 0.03% w/v, foliar and stem spray 2 litre/tree, once, twice or three times two weeks apart; three mango trees
# Experimental: TMT supplied in a 15% aqueous solution diluted in rainwater at 1 in 500 (10 ml/5 L), namely in 0.03% w/v aqueous solution was used. These three trees were foliar and stem sprayed (2 litre/tree each time) with the solution, once, twice or three times some two weeks apart. The fungal pathogen was killed. The growth response was extraordinary, but in order of the number of sprays. Leaves in both number and size followed suit as did flower spikes and fruit set. Fruit harvested was 10% greater in mass for each additional spray.
# [13] = tested on: Araucaria, Cassia and Bauhinia, Grevillea; assay: Tree trials, spraying; assay type: in vivo; details: 0.03% w/v spray; after a few weeks of spraying
# [14] = tested on: insects, annelids, crustaceans, molluscs, arachnids, birds and animals; assay: Observed effect on other small organisms, birds and animals; assay type: in vivo; details: TMT diluted with water as in the embodiments and examples
# Text: The LD-50 for the rat is 2× the body mass of the rat, so it would drown before dying by ingestion.
# [15] = thirty-six days, without watering or fertilizer since spraying
# [16] = aqueous solution and foliar and stem spraying as in Example 5
smiles,measurement,setting,value
"Sc1nc(S)nc(S)n1 [TMT, 1,3,5-Triazinane-2,4,6-Trithione]",functionality to stimulate growth,[1],increased synergistically
same,effect on Phellinus in samples,Phellinus,appeared to have been killed
same,success on killing off the fungus on affected plants,Fusarium oxysporum,100%
same,flowering,"[2]; single foliar spray 28 Jun. 2019, within two weeks, normal flowering end of August",coming into flower
same,flower maturation and fruit set,"[2]; by 3 Aug. 2019, some thirty-six days from spraying","the initiated flowers had matured, and the setting of fruit had commenced"
same,flowering,"[2]; by 18 July, some three weeks after spraying",continue showing flowering
same,fruit growth,"[2]; by 28 Sep. 2019, some ninety-six days from spraying",growing apace
same,new flowering,[2]; [15],abundance of new flowering
same,signs of stress,[2]; [15],not showing any signs of stress
same,indications of new growth,"[3]; 0.0375% w/v aqueous solution, 20 L per tree sprayed to soil beneath two trees, within one week of spraying",marked new growth
same,feeder roots examined,"[3]; 0.0375% w/v, soil spray, about seven and a half months after spraying",healthy feeder roots and earthworms were found
same,growth in size more than the surrounding trees,"[3]; 0.0375% w/v, soil spray, within four months",20-25%
same,appearance of treated trees versus surrounding trees,"[3]; 0.0375% w/v, soil spray, within seven weeks of spraying",significantly different to the surrounding trees
same,growth response,"mango (Mangifera indica); 0.03% w/v, foliar and stem spray, one to three sprays, response in order of the number of sprays",extraordinary
same,"fruit harvested, greater in mass for each additional spray","mango (Mangifera indica); 0.03% w/v, foliar and stem spray, per additional spray",10%
same,"leaves in number and size, flower spikes and fruit set","mango (Mangifera indica); 0.03% w/v, one to three sprays, relative to order of number of sprays",followed suit
same,fruit sweetness,mango (Mangifera indica); observed but not measured,sweeter with increased spraying
same,new shoots and leaf growth,[4],new shoots from branch axils and new leaf growth appeared
same,effect on fungal pathogen,[5],killed
same,shoot and root formation on treated grass sample,Rhodes grass,shoots and roots formed thereon
same,new growth out of season,[6],gone into new growth
same,response of trees close to death,[7],"slow but consistent response, with epicormic buds appearing on the tree trunks, under the bark and new leaves appearing on apparently dead branches"
same,flowering,"Macadamia tree; 0.03% w/v foliar spray 28 Jun. 2019, after about two weeks, normally flowers in late August",came into flower
same,flowering,"Macadamia tree; 0.03% w/v, after three weeks",continued to produce flowers
same,flower maturation and fruit (nut) set,"Macadamia tree; 0.03% w/v, by 3rd August, some thirty-six days after spraying",the flowers have matured and the setting of fruit(nut) has commenced
same,fruit growth,"Macadamia tree; 0.03% w/v, by 28 Sep. 2019, some ninety-six days from spraying",growing apace
same,brix (sugar content measurement) higher than the control trees,[8]; [16],approximately 10%
same,fruit sweetness,[8]; [16],noticeably sweeter
same,disease and insect predators versus surrounding trees,[8]; spraying as in Example 5,much less disease and fewer insect predators
same,leaves of treated trees versus surrounding trees,[8]; spraying as in Example 5,bigger brighter green leaves
same,frost damage,"[8]; unseasonal frost, nearby unsprayed trees were subject to frost damage",not affected by an unseasonal frost
same,kill on contact,Pithium spp.,kills
same,kill on contact,Phellinus spp.,kills
same,kill on contact,Phytothphora cinnamomi,kills
same,development of spores that break out of sporangias,Phytophthora; 15% aqueous solution diluted at 1:500,do not develop
same,effect on Phytophthora,"Phytophthora; 15% aqueous solution diluted at 1:500 (10 ml/5 L), avocado soil with Phytophthora",kills and stops lifecycle of Phytophthora
same,toxicity to other soil microbes and biota,[9],not to be toxic
same,effect on Pithium in samples,Pithium,appeared to have been killed
same,"dry matter, mass relative to the control",[10]; 0.03% w/v spray,200% +/−4
same,effect on mite infection,[10]; 0.03% w/v spray,overturned the mite infection
same,treatment of grass die back from Phellinus and Pithium,"[10]; 0.03% w/v spray, range of grass species, cause uncertain due to mealy bug",successful
same,time until dead patches were resolved completely,"[10]; spray 50 L/50 m^2 on grazing land, house front lawn, golf course couch greens, except the football field (chlorinated town water)",10 to 14 days
same,LD-50,rat,2 × the body mass of the rat
same,growth of crop plants,[11],improvement of growth
same,effect on fungal pathogen,[12],killed
same,growth of trees showing poor growth,[13],marked improvement with growth
same,"effect on other small organisms, birds and animals",[14],benign
